According to the Kinase Knowledgebase extract (Sharma et al. 2016):

target: CDK2 (UniProt P24941); experiment: Enzyme Assay; details: concentration not given here

| Compound | inhibition [%] |
| --- | --- |
| Cc1sc(NC(=O)Cc2ccc3c(c2)OCO3)c(C(N)=O)c1C | 100 |
| COc1cccc(OC)c1C(=O)Nc1sc(C)c(C)c1C(N)=O | 100 |
| CN1CCc2c(sc(NC(=O)CCc3nc4c([nH]3)c(=O)n(C)c(=O)n4C)c2C(N)=O)C1 | 100 |
| CN(C)CC(=O)Nc1sc2c(c1C(N)=O)CCCC2 | 100 |
| NC(=O)c1cc(-c2ccccc2)sc1NC(=O)COc1ccccc1 | 100 |
| COc1cccc(C(=O)Nc2sc(-c3ccccc3)cc2C(N)=O)c1 | 100 |
| Cc1ccccc1C(=O)Nc1sc2c(c1C(N)=O)CCCC2 | 100 |
| CC(C)C(C(=O)O)N(C(N)=O)c1sc(Cc2ccccc2)cc1C(N)=O (stereo not given) | 100 |
| CC(C)c1cc(C(N)=O)c(NC(=O)c2ccc(F)cc2)s1 | 100 |
| CC(c1ccccc1)c1cc(C(N)=O)c(NC(=O)c2nccc3ccccc23)s1 (stereo not given) | 100 |
| COc1cc(OC)c(C(=O)Nc2scc(C)c2C(N)=O)cc1OC | 100 |
| CC(=O)c1ccc(C(=O)Nc2sc(Cc3ccccc3)cc2C(N)=O)cc1 | 100 |
| CC(c1ccccc1)c1cc(C(N)=O)c(NC(=O)c2ccc3ccccc3c2)s1 (stereo not given) | 100 |
| Cc1sc(NC(=O)c2cc(Cl)cc(Cl)c2)c(C(N)=O)c1C | 100 |
| CC(C)c1ccc(C(=O)Nc2sc(Cc3ccccc3)cc2C(N)=O)cc1 | 100 |
| CC(c1ccccc1)c1cc(C(N)=O)c(NC(=O)c2ccnc3ccccc23)s1 (stereo not given) | 100 |
| CC(C)c1cc(C(N)=O)c(NC(=O)C2CCCCCC2)s1 | 100 |
| NC(=O)c1cc(-c2ccccc2)sc1NC(=O)Cc1ccccc1F | 100 |
| NC(=O)c1cc(Cc2ccccc2)sc1NC(=O)c1ccc2c(c1)C=NC2 | 100 |
| COc1cc(C(=O)Nc2sc3c(c2C(N)=O)CCN(C)C3)cc(OC)c1OC | 100 |
| NC(=O)c1cc(Cc2ccccc2)sc1NC(=O)/C=C/c1ccccc1O | 100 |
| CC(C)c1cc(C(N)=O)c(NC(=O)CCNC(N)=O)s1 | 100 |
| Cc1cc(C)cc(CC(=O)Nc2sc(Cc3ccccc3)cc2C(N)=O)c1 | 100 |

| Compound | inhibition [%] |
| --- | --- |
| CC(=O)Nc1ccc(Br)cc1C(=O)Nc1sc2c(c1C(N)=O)CCN(C)C2 | 100 |
| NC(=O)c1cc(Cc2ccccc2)sc1NC(=O)COCc1ccccc1 | 100 |
| CC(=O)NC(C(=O)Nc1scc(C)c1C(N)=O)c1ccccc1 (stereo not given) | 100 |
| NC(=O)c1c(NC(=O)C2CC2)sc2c1CCCC2 | 100 |
| NC(=O)c1cc(-c2ccccc2)sc1NC(=O)Cc1cccc(F)c1 | 100 |
| COc1ccc(C)c(C(=O)Nc2sc(Cc3ccccc3)cc2C(N)=O)c1 | 100 |
| CC(C)c1cc(C(N)=O)c(NC(=O)CCC2CCCC2)s1 | 100 |
| NC(=O)c1cc(-c2ccccc2)sc1NC(=O)Cc1ccc(O)cc1 | 100 |
| NC(=O)c1c(NC(=O)c2cnccn2)sc2c1CCCC2 | 100 |
| Cc1ccc2[nH]c(C(=O)Nc3sc(C)c(C)c3C(N)=O)cc2c1 | 100 |
| CC(NC(=O)C(C)Nc1sc(-c2ccccc2)cc1C(N)=O)C(=O)O (stereo not given) | 100 |
| Cc1cc(C)cc(C(=O)Nc2sc(C(C)C)cc2C(N)=O)c1 | 100 |
| CCN(CC)CCC(=O)Nc1sc(C)c(C)c1C(N)=O | 100 |
| COc1cccc(O)c1C(=O)Nc1sc(Cc2ccccc2)cc1C(N)=O | 100 |
| Cc1ccc(C(=O)Nc2sc(-c3ccccc3)cc2C(N)=O)c(O)c1 | 100 |
| COc1ccc2c(c1)C(CC(=O)Nc1sc3c(c1C(N)=O)CCN(C)C3)C(=O)C2 (stereo not given) | 100 |
| NC(=O)c1cc(Cc2ccccc2)sc1NC(=O)c1c[nH]cn1 | 100 |
| Cc1ccc(C)c(C(=O)Nc2sc(C(C)C)cc2C(N)=O)c1 | 100 |
| CC(c1ccccc1)c1cc(C(N)=O)c(NC(=O)CNC(=O)c2ccccc2)s1 (stereo not given) | 100 |
| Cc1csc(NC(=O)CCc2nc3ccccc3[nH]2)c1C(N)=O | 100 |
| CC(=O)NC(=O)C(C)Nc1sc(C(C)C)cc1C(N)=O (stereo not given) | 100 |
| CN1CCc2c(sc(NC(=O)C(Cc3c[nH]cn3)NC(=O)c3ccccc3)c2C(N)=O)C1 (stereo not given) | 100 |
